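Exposure lasted 48 hours, with cells grown in 96-well plates and compounds tested at five concentrations. GI50 marks 50% less growth. The concentration for full growth arrest is given as TGI.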
Columns and labels:
Assay in all cases: DTP human tumour cell line panel, 48 h; in the data active = GI50 below about 0.43 µM; inactive = the rest
U251 CNS = system: U251 CNS
786-0 renal = system: 786-0 renal
HCT-116 colon = system: HCT-116 colon
NCI-H522 lung = system: NCI-H522 lung
NCI/ADR-RES ovarian = system: NCI/ADR-RES ovarian
IGROV1 ovarian = system: IGROV1 ovarian
SK-MEL-5 melanoma = system: SK-MEL-5 melanoma
HOP-92 NSCLC = system: HOP-92 NSCLC
SNB-75 CNS = system: SNB-75 CNS
HT29 colon = system: HT29 colon
SF-268 CNS = system: SF-268 CNS
MALME-3M melanoma = system: MALME-3M melanoma
A549 NSCLC = system: A549 NSCLC
TK-10 renal = system: TK-10 renal
CCRF-CEM leukemia = system: CCRF-CEM leukemia
A498 renal = system: A498 renal
UO-31 renal = system: UO-31 renal
MDA-MB-231 breast = system: MDA-MB-231 breast
ACHN renal = system: ACHN renal
K-562 leukemia = system: K-562 leukemia
MDA-N = system: MDA-N
SK-MEL-2 melanoma = system: SK-MEL-2 melanoma
COLO 205 colon = system: COLO 205 colon
NCI-H226 lung = system: NCI-H226 lung
SNB-19 CNS = system: SNB-19 CNS
SK-OV-3 ovarian = system: SK-OV-3 ovarian
UACC-62 melanoma = system: UACC-62 melanoma
SN12C renal = system: SN12C renal
SK-MEL-28 melanoma = system: SK-MEL-28 melanoma
M14 melanoma = system: M14 melanoma
SF-295 CNS = system: SF-295 CNS
UACC-257 melanoma = system: UACC-257 melanoma
NCI-H23 lung = system: NCI-H23 lung
BT-549 breast = system: BT-549 breast
OVCAR-3 ovarian = system: OVCAR-3 ovarian
HL-60(TB) leukemia = system: HL-60(TB) leukemia
HOP-62 NSCLC = system: HOP-62 NSCLC
HCT-15 colon = system: HCT-15 colon
HS 578T breast = system: HS 578T breast
SF-539 CNS = system: SF-539 CNS
NCI-H460 lung = system: NCI-H460 lung
DU-145 prostate = system: DU-145 prostate
MCF7 breast = system: MCF7 breast
EKVX NSCLC = system: EKVX NSCLC
OVCAR-8 ovarian = system: OVCAR-8 ovarian
LOX IMVI melanoma = system: LOX IMVI melanoma
RXF 393 renal = system: RXF 393 renal
HCC-2998 colon = system: HCC-2998 colon
SW-620 colon = system: SW-620 colon
MDA-MB-435 = system: MDA-MB-435
CAKI-1 renal = system: CAKI-1 renal
OVCAR-4 ovarian = system: OVCAR-4 ovarian
PC-3 prostate = system: PC-3 prostate
OVCAR-5 ovarian = system: OVCAR-5 ovarian
KM12 colon = system: KM12 colon
SR leukemia = system: SR leukemia
RPMI-8226 leukemia = system: RPMI-8226 leukemia
T-47D breast = system: T-47D breast
MOLT-4 leukemia = system: MOLT-4 leukemia

[N-]=[N+]=NC1=NNC2(C(=O)N1)c1ccccc1-c1ccccc12
33.3 µM: TGI (MALME-3M melanoma)
27.4 µM: TGI (HCT-116 colon)
> 100 µM: TGI (U251 CNS) | TGI (786-0 renal) | TGI (NCI-H522 lung) | TGI (NCI/ADR-RES ovarian) | TGI (IGROV1 ovarian) | TGI (SK-MEL-5 melanoma) | TGI (HOP-92 NSCLC) | TGI (SNB-75 CNS) | TGI (HT29 colon) | TGI (SF-268 CNS) | TGI (A549 NSCLC) | TGI (TK-10 renal) | TGI (CCRF-CEM leukemia) | TGI (A498 renal) | TGI (UO-31 renal) | TGI (MDA-MB-231 breast) | TGI (ACHN renal) | TGI (K-562 leukemia) | TGI (MDA-N) | TGI (SK-MEL-2 melanoma) | TGI (COLO 205 colon) | TGI (NCI-H226 lung) | TGI (SNB-19 CNS) | TGI (SK-OV-3 ovarian) | TGI (UACC-62 melanoma) | TGI (SN12C renal) | TGI (SK-MEL-28 melanoma) | TGI (M14 melanoma) | TGI (SF-295 CNS) | TGI (UACC-257 melanoma) | TGI (NCI-H23 lung) | TGI (BT-549 breast) | TGI (OVCAR-3 ovarian) | TGI (HL-60(TB) leukemia) | TGI (HOP-62 NSCLC) | TGI (HCT-15 colon) | TGI (HS 578T breast) | TGI (SF-539 CNS) | TGI (NCI-H460 lung) | TGI (DU-145 prostate) | TGI (MCF7 breast) | TGI (EKVX NSCLC) | TGI (OVCAR-8 ovarian) | TGI (LOX IMVI melanoma) | TGI (RXF 393 renal) | TGI (HCC-2998 colon) | TGI (SW-620 colon) | TGI (CAKI-1 renal) | TGI (OVCAR-4 ovarian) | TGI (PC-3 prostate) | TGI (OVCAR-5 ovarian)
33.1 µM: TGI (MDA-MB-435)

CN(NC(=O)CC(=O)NN(C)C(=S)c1ccccc1)C(=S)c1ccccc1
> 89.6 µM: TGI (UO-31 renal)
> 100 µM: TGI (U251 CNS) | TGI (786-0 renal) | TGI (HCT-116 colon) | TGI (NCI-H522 lung) | TGI (NCI/ADR-RES ovarian) | TGI (IGROV1 ovarian) | TGI (SK-MEL-5 melanoma) | TGI (HOP-92 NSCLC) | TGI (SNB-75 CNS) | TGI (HT29 colon) | TGI (KM12 colon) | TGI (SF-268 CNS) | TGI (MALME-3M melanoma) | TGI (A549 NSCLC) | TGI (TK-10 renal) | TGI (CCRF-CEM leukemia) | TGI (MDA-MB-231 breast) | TGI (ACHN renal) | TGI (SR leukemia) | TGI (K-562 leukemia) | TGI (MDA-N) | TGI (SK-MEL-2 melanoma) | TGI (COLO 205 colon) | TGI (NCI-H226 lung) | TGI (SNB-19 CNS) | TGI (SK-OV-3 ovarian) | TGI (UACC-62 melanoma) | TGI (SN12C renal) | TGI (SK-MEL-28 melanoma) | TGI (M14 melanoma) | TGI (SF-295 CNS) | TGI (NCI-H23 lung) | TGI (BT-549 breast) | TGI (OVCAR-3 ovarian) | TGI (HL-60(TB) leukemia) | TGI (HOP-62 NSCLC) | TGI (HCT-15 colon) | TGI (HS 578T breast) | TGI (SF-539 CNS) | TGI (NCI-H460 lung) | TGI (DU-145 prostate) | TGI (MCF7 breast) | TGI (EKVX NSCLC) | TGI (OVCAR-8 ovarian) | TGI (LOX IMVI melanoma) | TGI (RXF 393 renal) | TGI (RPMI-8226 leukemia) | TGI (HCC-2998 colon) | TGI (SW-620 colon) | TGI (MDA-MB-435) | TGI (CAKI-1 renal) | TGI (OVCAR-4 ovarian) | TGI (PC-3 prostate) | TGI (OVCAR-5 ovarian)
active: GI50 (NCI-H460 lung) 84.3 nM | GI50 (MCF7 breast) < 10 nM
inactive: GI50 (U251 CNS) 49.8 µM | GI50 (786-0 renal) 56.3 µM | GI50 (NCI-H522 lung) 69.9 µM | GI50 (NCI/ADR-RES ovarian) 55.3 µM | GI50 (SK-MEL-5 melanoma) 49.1 µM | GI50 (SNB-75 CNS) > 54.6 µM | GI50 (KM12 colon) 65.1 µM | GI50 (SF-268 CNS) 67.2 µM | GI50 (MALME-3M melanoma) > 69.5 µM | GI50 (A549 NSCLC) 16.7 µM | GI50 (CCRF-CEM leukemia) 64.7 µM | GI50 (UO-31 renal) 14.6 µM | GI50 (MDA-MB-231 breast) > 100 µM | GI50 (ACHN renal) 73.9 µM | GI50 (K-562 leukemia) 40.8 µM | GI50 (SK-MEL-2 melanoma) 8.77 µM | GI50 (SN12C renal) > 100 µM | GI50 (SK-MEL-28 melanoma) > 72.8 µM | GI50 (M14 melanoma) > 73.7 µM | GI50 (NCI-H23 lung) > 87.4 µM | GI50 (BT-549 breast) 88.7 µM | GI50 (HL-60(TB) leukemia) > 70.7 µM | GI50 (HOP-62 NSCLC) > 69.2 µM | GI50 (HCT-15 colon) 32.1 µM | GI50 (HS 578T breast) 19.2 µM | GI50 (DU-145 prostate) > 59.2 µM | GI50 (OVCAR-8 ovarian) > 66.7 µM | GI50 (RXF 393 renal) > 61.1 µM | GI50 (MDA-MB-435) > 84.4 µM | GI50 (CAKI-1 renal) > 55.7 µM | GI50 (OVCAR-4 ovarian) > 71.2 µM | GI50 (PC-3 prostate) 51.5 µM

COC(=O)C1=COC(C)C2C[n+]3ccc4c([nH]c5ccccc54)c3CC12 (centres undefined)
> 100 µM: TGI (U251 CNS) | TGI (786-0 renal) | TGI (HCT-116 colon) | TGI (NCI-H522 lung) | TGI (NCI/ADR-RES ovarian) | TGI (IGROV1 ovarian) | TGI (SK-MEL-5 melanoma) | TGI (HOP-92 NSCLC) | TGI (SNB-75 CNS) | TGI (HT29 colon) | TGI (KM12 colon) | TGI (SF-268 CNS) | TGI (A549 NSCLC) | TGI (TK-10 renal) | TGI (CCRF-CEM leukemia) | TGI (A498 renal) | TGI (UO-31 renal) | TGI (MDA-MB-231 breast) | TGI (ACHN renal) | TGI (K-562 leukemia) | TGI (MDA-N) | TGI (SK-MEL-2 melanoma) | TGI (COLO 205 colon) | TGI (NCI-H226 lung) | TGI (T-47D breast) | TGI (SNB-19 CNS) | TGI (SK-OV-3 ovarian) | TGI (MOLT-4 leukemia) | TGI (UACC-62 melanoma) | TGI (SN12C renal) | TGI (SK-MEL-28 melanoma) | TGI (M14 melanoma) | TGI (SF-295 CNS) | TGI (UACC-257 melanoma) | TGI (NCI-H23 lung) | TGI (BT-549 breast) | TGI (OVCAR-3 ovarian) | TGI (HL-60(TB) leukemia) | TGI (HOP-62 NSCLC) | TGI (HCT-15 colon) | TGI (HS 578T breast) | TGI (SF-539 CNS) | TGI (NCI-H460 lung) | TGI (DU-145 prostate) | TGI (MCF7 breast) | TGI (EKVX NSCLC) | TGI (OVCAR-8 ovarian) | TGI (LOX IMVI melanoma) | TGI (RPMI-8226 leukemia) | TGI (HCC-2998 colon) | TGI (SW-620 colon) | TGI (MDA-MB-435) | TGI (CAKI-1 renal) | TGI (OVCAR-4 ovarian) | TGI (PC-3 prostate) | TGI (OVCAR-5 ovarian)

— PubChem BioAssay (NCI)
